Reference: US20250161419A1, “SERPIN PEPTIDES AND METHODS OF USING THE SAME” (SERPIN PHARMA, LLC, priority 2022, published 2025)

Experiments:
[1] = Peptide stability as stated in Example 1 (no method described); assay type: physicochemical; settings: stated as explanation of activity; no test described
[2] = tested on: NFκB; experiment: NFκB reporter assay stimulated with LPS (THP1-XBlue-MD2-GD14 reporter cells, SEAP read-out); assay type: cell-based; settings: peptide 50 μg/ml before LPS 5 ng/ml, overnight
Experimental: The reporter cells (THP1-XBlue-MD2-GD14 cells) were treated with each peptide (50 μg/ml) before being insulted with LIPS (5 ng/ml) and incubated overnight. The NFκB inducible Secreted Embryonic Alkaline Phosphatase (SEAP) was measured in the supernatant and read for absorbance.

[3] = tested on: phospho-ERK1/2; experiment: Cell signaling analysis in PC12 cells, immunoblot of phospho-ERK1/2; assay type: cell-based, rat; settings: SP163M 24 or 240 nM, NGF 0.36 nM, RAP 150 nM pretreatment 15 min
Experimental: Cell signaling analysis: Rat PC12 cells were purchased from ATCC (CRL-1721). PC12 cells were maintained in high glucose DMEM (Gibco, USA) containing 10% heat-inactivated FBS (Gibco, USA), 5% HyClone heat-inactivated horse serum (Cytiva, USA), penicillin (100 units/ml) and streptomycin ([…]) in 6-well plates that were pre-coated with 0.01 mg/ml type IV collagen (Sigma-Aldrich, St. Louis, MO, USA). Cells were transferred to serum-free medium (SFM) 4 h prior to adding effectors, and then treated with SP163M (2.4, 24 or 240 nM); EI-tPA (12 nM), NGF (0.36 nM), or vehicle (PBS) for 10 min. In some cases, cells were pre-incubated with the competitive antagonist of LRP1, GST-RAP (150 nM) for 15 min or electroporated using the Rat Neuron Nucleofector Amaxa Kit (Lonza Biosciences) and incubated with siRNA to silence LRP1 expression (siLRP1; M-094191-01-0010, Dharmacon) for 48 h. Control cells were transfected with non-targeting control (NTC) siRNA (NTC; D-001810-10-05, Dharmacon). Cells were rinsed with ice-cold PBS and proteins were extracted in RIPA buffer (20 mM sodium phosphate, 150 mM NaCl, pH 7.4, 1% Triton X-100, 0.5% sodium deoxycholate, 0.1% SDS) supplemented with protease and phosphatase inhibitors (Roche Diagnostics, USA). After 30 min on ice, lysates were centrifuged at 15000×g for 5 min, supernatant collected and stored at −20° C. Equal amounts of protein from cell lysates (20 μg), as determined by BCA Protein Assay (ThermoFisher Scientific, Waltham, MA, USA), were subjected to 10% SDS-PAGE and electro-transferred to nitrocellulose membranes. The membranes were blocked with 5% nonfat dried milk and then incubated with primary anti-phospho-AKT (Cell Signaling Technology, Danvers, MA, USA; cat #9271S; 1:1000), anti-phospho-ERK1/2 (Cell Signaling Technology, Danvers, MA, USA; cat #9101S; 1:1000), anti-LRP1 (Cell Signaling Technology, Danvers, MA, USA; cat #64099S; 1:1000) or anti total-ERK1/2 (Cell Signaling Technology, Danvers, MA, USA; cat #91012S; 1:1000). Immunoblots were developed using Radiance, Radiance Q, and Radiance Plus chemiluminescent substrates and imaged using a BioRad ChemiDoc Imaging System (Bio-Rad, Hercules, CA, USA).

[4] = tested on: phospho-STAT6; experiment: IL-13 stimulated STAT6 phosphorylation in esophageal EPC2 cells (western blot); assay type: cell-based, human; settings: 30 minutes post IL-13 induction
Experimental: Esophageal EPC2 cells were treated with vehicle (ddw), A1AT or SP163M. Cells were collected at time-points indicated and western blot analysis of phospho-specific STAT6 was analyzed. […] Using CRISPER/CAS9 technology, an LRP1 knockout esophageal EPC2 cell line was created.

[5] = tested on: NFκB; experiment: NFκB reporter assay stimulated with LPS (THP1-XBlue-MD2-GD14 reporter cells, SEAP read-out); assay type: cell-based; settings: without LPS

Substance | NFκB activity (NFκB inducible SEAP in supernatant) [2] | other results
RRRVKFNKPFVFLMIEQNTKRRR (RRRVKFNKPFVFLMIEQNTKRRR; SP16 peptide core sequence including the LRP1 binding site) [SP21] | NFkB inhibition increased as well relative to SP16 | peptide stability [1]: stability increased
NGF: NGF-β purchased from Sigma, cell signaling control [reference compound] |  | activation of phospho-ERK1/2 after 10 min, with or without RAP [3]: activated ERK1/2
FPKMVPQFNTELKIFPEVNIK (FPKMVPQFNTELKIFPEVNIK) [SP34, reference compound] | neither the scrambled core control peptide nor the AAT 0-36 fragment decreased the NFκB activity | 
VRFNRPFLMII [SP28] | lack of function | 
R R R V R F N R P F L R R R (RRRVRFNRPFLRRR) [SP32] | could not be restored with the poly arginine flanks | 
A1AT: alpha-1 antitrypsin, the prototypical SERPIN [Peptide A1AT] |  | STAT6 phosphorylation [4]: STAT6 was phosphorylated in vehicle and A1AT treated cells
R R R L R F N R P F L V V I R R R (RRRLRFNRPFLVVIRRR) [SP26] | heightened activity | 
R R R V K F N K P F V F L M R R R (RRRVKFNKPFVFLMRRR; SP16 peptide core sequence including the LRP1 binding site) [SP22] | NFκB activity was significantly reduced | 
V R F N R P F L (VRFNRPFL) [SP31] | anti-inflammatory activity of the peptide was lost | 
SIPPEVKFNKPFVFLMIEQNTKSPLFMGKVVNP (SIPPEVKFNKPFVFLMIEQNTKSPLFMGKVVNP; SP16 peptide core sequence including the LRP1 binding site; listed as Homo sapiens) [SP8, reference compound] | neither the scrambled core control peptide nor the AAT 0-36 fragment decreased the NFκB activity | NFkB induction by the peptide itself [5]: showed NFkB inducible properties without the need for LPS
R R R V R F N R P F L M I I R R R (RRRVRFNRPFLMIIRRR) [SP29] | heightened activity | 
VKFNKPFVFLM (SP16 peptide core sequence including the LRP1 binding site; listed as Homo sapiens) [SP20] | did not have an inhibitory effect | peptide stability [1]: unstable
LRFNRPFLVVI [SP24] | lack of function | 
